According to patent US8722937B2 (priority 2006, dated 2014):
Values after ≈ are worked out from the molar mass of the structure shown. Where two headings read alike, the source gives them in different places.

Columns and labels:
[1] = target: FabH derived from M. tuberculosis (mtFabH) (Mycobacterium tuberculosis, UniProt P9WNG3); details: 10 µM
[2] = target: T1, FabH derived from E. coli (ecFabH) (Escherichia coli, UniProt P0A6R0); assay: FabH enzyme assay (coupled trichloroacetic acid precipitation assay), ecFabH; type: biochemical; details: 1 μM of test compound
T1 construct: polyhistidine (N); made in house; host or cells: E. coli
T1 sequence (P0A6R0 1-317): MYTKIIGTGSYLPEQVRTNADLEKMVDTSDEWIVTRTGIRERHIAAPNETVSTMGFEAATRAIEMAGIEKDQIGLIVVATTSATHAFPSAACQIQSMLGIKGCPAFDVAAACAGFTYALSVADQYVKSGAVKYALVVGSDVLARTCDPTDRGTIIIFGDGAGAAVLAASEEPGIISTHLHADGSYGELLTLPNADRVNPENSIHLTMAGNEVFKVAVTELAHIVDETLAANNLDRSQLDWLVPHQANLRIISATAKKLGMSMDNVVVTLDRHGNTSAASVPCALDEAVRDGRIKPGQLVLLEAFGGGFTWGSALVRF

[3] = tested on: S. aureus (ATCC 25923); assay: microbe, parasite or virus in culture; type: cell-based, Staphylococcus aureus; details: 24 h, 37° C.; for zone of inhibition at 20 µg/disc: Staphylococcus aureus, ATCC25923
[4] = tested on: methicillin-resistant S. aureus (MRSA); assay: microbe, parasite or virus in culture; type: cell-based, Staphylococcus aureus; details: 24 h, 37° C.; for zone of inhibition at 20 µg/disc: Staphylococcus aureus, MRSA, read-out: Average zones of growth inhibition of MRSA (USF-652-659, 919-920)
[5] = tested on: S. aureus (ATCC 25923); assay: Agar dilution minimum inhibitory concentration (MIC), S. aureus; type: cell-based, Staphylococcus aureus; details: serial dilution in 24-well plate, NCCLS; for MIC: Staphylococcus aureus, ATCC25923, read-out: Minimum inhibitory concentration (MIC) against S. aureus (ATCC 25923)
[6] = tested on: B. anthracis (USF 848); assay: microbe, parasite or virus in culture; type: cell-based, Bacillus anthracis; details: 24 h, 37° C.; for zone of inhibition at 20 µg/disc: Bacillus anthracis
[7] = tested on: B. anthracis (USF 848); assay: microbe, parasite or virus in culture; type: cell-based, Bacillus anthracis; details: for MIC: Bacillus anthracis, read-out: Minimum inhibitory concentration (MIC) against B. anthracis (USF 848)
[8] = tested on: E. coli (K12; ATCC 23590); assay: Kirby-Bauer zones of inhibition, E. coli; type: cell-based, Escherichia coli; details: full or partial not stated
[9] = read-out: Zones of growth inhibition of S. aureus (ATCC 25923), areas of partial inhibition
[10] = read-out: Zones of growth inhibition of S. aureus (ATCC 25923)
[11] = read-out: Zones of growth inhibition of B. anthracis (USF 848), areas of partial growth inhibition
[12] = read-out: Zones of growth inhibition of B. anthracis (USF 848)

FabH derived from M. tuberculosis (mtFabH), sequence (P9WNG3 whole entry): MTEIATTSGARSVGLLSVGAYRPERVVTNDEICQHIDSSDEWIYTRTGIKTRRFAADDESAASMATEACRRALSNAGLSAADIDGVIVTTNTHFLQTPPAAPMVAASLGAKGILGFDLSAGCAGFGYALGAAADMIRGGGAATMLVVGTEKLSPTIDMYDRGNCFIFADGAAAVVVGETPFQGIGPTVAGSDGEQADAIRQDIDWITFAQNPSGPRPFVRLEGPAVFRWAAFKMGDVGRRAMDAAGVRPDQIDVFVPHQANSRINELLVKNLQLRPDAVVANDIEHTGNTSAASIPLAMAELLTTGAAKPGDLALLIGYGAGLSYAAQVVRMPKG

COC1C(=O)N(SC)C1c1ccccc1Cl (centres unmarked) [Compound 2a]
Percent inhibition of mtFabH [1]: 75%
Percent inhibition of ecFabH [2]: 89%

CCSSCCNC(=O)CCNC(=O)[C@H](O)C(C)(C)COP(=O)(O)OP(=O)(O)OC[C@H]1O[C@@H](n2cnc3c(N)ncnc32)[C@H](O)[C@@H]1OP(=O)(O)O [Compound 25b]
Zones of growth inhibition, S. aureus [3]: 0 mm
Zones of growth inhibition, MRSA [4]: 0 mm

CSS(C)(=O)=O [Compound 26a, reference compound]
Zones of growth inhibition, S. aureus [3]: 22 mm
Zones of growth inhibition, MRSA [4]: 23 mm

CCSS(C)(=O)=O [Compound 26b]
Zones of growth inhibition, S. aureus [3]: 19 mm
Zones of growth inhibition, MRSA [4]: 20 mm

CCC(C)SS(C)(=O)=O (centres unmarked) [Compound 26c]
Zones of growth inhibition, S. aureus [3]: 23 mm
Zones of growth inhibition, MRSA [4]: 23 mm

CSSc1ccc(F)c(F)c1 [Compound 33a, 3,4-Difluorophenyl Methyl Disulfide]
zone of inhibition at 20 µg/disc [3, 9]: 11 mm

CCSSc1ccc(F)c(F)c1 [Compound 33b, 3,4-Difluorophenyl Ethyl Disulfide]
zone of inhibition at 20 µg/disc [3, 9]: 9 mm

CC(C)SSc1ccc(F)c(F)c1 [Compound 33c, 3,4-Difluorophenyl Isopropyl Disulfide]
zone of inhibition at 20 µg/disc [3, 9]: 9 mm

CCC(C)SSc1ccc(F)c(F)c1 (centres unmarked) [Compound 33d, Sec-Butyl 3,4-Difluorophenyl Disulfide]
zone of inhibition at 20 µg/disc [3, 9]: 9 mm

CCCSSc1ccc(F)c(F)c1 [Compound 33e, 3,4-Difluorophenyl n-propyl Disulfide]
zone of inhibition at 20 µg/disc [3, 10]: 0 mm

CCCCSSc1ccc(F)c(F)c1 [Compound 33f, n-Butyl 3,4-difluorophenyl Disulfide]
zone of inhibition at 20 µg/disc [3, 9]: 10 mm

CCSSc1ccccc1Cl [Compound 34b, o-Chlorophenyl Ethyl Disulfide]
zone of inhibition at 20 µg/disc [3, 9]: 9 mm

CC(C)SSc1ccccc1Cl [Compound 34c, o-Chlorophenyl Isopropyl Disulfide]
zone of inhibition at 20 µg/disc [3, 9]: 11 mm

CCC(C)SSc1ccccc1Cl (centres unmarked) [Compound 34d, s-Butyl o-chlorophenyl Disulfide]
zone of inhibition at 20 µg/disc [3, 9]: 10 mm

CCCSSc1ccccc1Cl [Compound 34e, o-Chlorophenyl n-propyl Disulfide]
zone of inhibition at 20 µg/disc [3, 10]: 0 mm

CCCCSSc1ccccc1Cl [Compound 34f, n-Butyl o-chlorophenyl Disulfide]
zone of inhibition at 20 µg/disc [3, 9]: 9 mm

CSSc1ccc(C)c(C)c1 [Compound 35a, 3,4-Dimethylphenyl Methyl Disulfide]
zone of inhibition at 20 µg/disc [3, 9]: 10 mm

CCSSc1ccc(C)c(C)c1 [Compound 35b, 3,4-Dimethylphenyl ethyl disulfide]
zone of inhibition at 20 µg/disc [3, 10]: 0 mm

Cc1ccc(SSC(C)C)cc1C [Compound 35c, 3,4-Dimethylphenyl Isopropyl Disulfide]
zone of inhibition at 20 µg/disc [3, 9]: 9 mm

CCC(C)SSc1ccc(C)c(C)c1 (centres unmarked) [Compound 35d, sec-Butyl 3,4-dimethylphenyl Disulfide]
zone of inhibition at 20 µg/disc [3, 10]: 0 mm

CCCSSc1ccc(C)c(C)c1 [Compound 35e, 3,4-Dimethylphenyl n-propyl Disulfide]
zone of inhibition at 20 µg/disc [3, 10]: 0 mm

CCCCSSc1ccc(C)c(C)c1 [Compound 35f, n-Butyl 3,4-dimethylphenyl Disulfide]
zone of inhibition at 20 µg/disc [3, 10]: 0 mm

CCOc1cccc(SSC)c1 [Compound 36a, m-Ethoxyphenyl Methyl Disulfide]
zone of inhibition at 20 µg/disc [3, 9]: 9 mm

CSSc1ccc(N)cc1 [Compound 39a, p-Aminophenyl Methyl Disulfide]
zone of inhibition at 20 µg/disc [3, 10]: 0 mm

CSSc1ccccc1CO [Compound 41a, o-(Hydroxymethyl)phenyl Methyl Disulfide]
zone of inhibition at 20 µg/disc [3, 9]: 14 mm
MIC [5]: 64 µg/mL (≈ 344 µM)

CSSc1ccccn1 [Compound 42a, Methyl 2-pyridinyl Disulfide]
activity against S. aureus (ATCC 25923) in Kirby-Bauer assay, in words [3]: some activity
zone of inhibition at 20 µg/disc [3, 10]: 16 mm
zone of inhibition at 20 µg/disc [3, 9]: 23 mm
MIC [5]: 64 µg/mL (≈ 407 µM)

CCSSc1ccccn1 [Compound 42b, Ethyl 2-pyridinyl Disulfide]
activity against S. aureus (ATCC 25923) in Kirby-Bauer assay, in words [3]: some activity
zone of inhibition at 20 µg/disc [3, 9]: 21 mm
MIC [5]: 32 µg/mL (≈ 187 µM)
zone of inhibition at 20 µg/disc [6, 11]: 27 mm

CC(C)SSc1ccccn1 [Compound 42c, Isopropyl 2-pyridinyl Disulfide]
zone of inhibition at 20 µg/disc [3, 10]: 0 mm
zone of inhibition at 20 µg/disc [6, 11]: 16 mm

CCC(C)SSc1ccccn1 (centres unmarked) [Compound 42d, s-Butyl 2-pyridinyl Disulfide]
zone of inhibition at 20 µg/disc [3, 10]: 0 mm
zone of inhibition at 20 µg/disc [6, 11]: 17 mm

CSSc1cccc([N+](=O)[O-])c1 [Compound 43a, Methyl m-nitrophenyl Disulfide]
MIC [7]: 2 µg/mL (≈ 9.94 µM)
Zones of growth inhibition of S. aureus (ATCC 25923) [3]: 27 (36) mm
Zones of growth inhibition of S. aureus (ATCC 25923), areas of partial inhibition [3]: 27 (36) mm
zone of inhibition at 20 µg/disc [3, 10]: 27 mm
zone of inhibition at 20 µg/disc [3, 9]: 36 mm
zone of inhibition at 20 µg/disc [4]: 15 mm
MIC [5]: 16 µg/mL (≈ 79.5 µM)
zone of inhibition against E. coli [8]: 10 mm
zone of inhibition at 20 µg/disc [6, 12]: 43 mm

CCSSc1cccc([N+](=O)[O-])c1 [Compound 43b, Ethyl m-nitrophenyl Disulfide]
MIC [7]: 0.38 µg/mL (≈ 1.76 µM)
zone of inhibition at 20 µg/disc [3, 9]: 45 mm
zone of inhibition at 20 µg/disc [4]: 12 mm
MIC [5]: 48 µg/mL (≈ 223 µM)
zone of inhibition at 20 µg/disc [6, 12]: 32 mm
zone of inhibition at 20 µg/disc [6, 11]: 40 mm

CC(C)SSc1cccc([N+](=O)[O-])c1 [Compound 43c, Isopropyl m-nitrophenyl Disulfide]
MIC [7]: < 0.125 µg/mL
Zones of growth inhibition of S. aureus (ATCC 25923) [3]: 55 (85) mm
Zones of growth inhibition of S. aureus (ATCC 25923), areas of partial inhibition [3]: 55 (85) mm
zone of inhibition at 20 µg/disc [3, 10]: 55 mm
zone of inhibition at 20 µg/disc [3, 9]: 85 mm
zone of inhibition at 20 µg/disc [4]: 38 mm
MIC [5]: 0.4 µg/mL (≈ 1.74 µM)
zone of inhibition at 20 µg/disc [6, 12]: 30 mm
zone of inhibition at 20 µg/disc [6, 11]: 54 mm

CCC(C)SSc1cccc([N+](=O)[O-])c1 (centres unmarked) [Compound 43d, s-Butyl m-nitrophenyl Disulfide]
MIC [7]: < 0.125 µg/mL
Zones of growth inhibition of S. aureus (ATCC 25923) [3]: 25 (45) mm
Zones of growth inhibition of S. aureus (ATCC 25923), areas of partial inhibition [3]: 25 (45) mm
zone of inhibition at 20 µg/disc [3, 10]: 25 mm
zone of inhibition at 20 µg/disc [3, 9]: 45 mm
zone of inhibition at 20 µg/disc [4]: 22 mm
MIC [5]: 2 µg/mL (≈ 8.22 µM)
zone of inhibition at 20 µg/disc [6, 12]: 27 mm
zone of inhibition at 20 µg/disc [6, 11]: 41 mm

CSSc1ccccc1[N+](=O)[O-] [Compound 44a, Methyl o-nitrophenyl Methyl Disulfide]
Minimum inhibitory concentration (MIC) against B. anthracis (USF 848) [7]: 4 µg/mL (≈ 19.9 µM)
Zones of growth inhibition of S. aureus (ATCC 25923) [3]: 34(37) mm
Zones of growth inhibition of S. aureus (ATCC 25923), areas of partial inhibition [3]: 34(37) mm
Average zones of growth inhibition of MRSA (USF-652-659, 919-920) [4]: 26 mm
Minimum inhibitory concentration (MIC) against S. aureus (ATCC 25923) [5]: 64 µg/mL (≈ 318 µM)
zone of inhibition against E. coli [8]: 9 mm
Zones of growth inhibition of B. anthracis (USF 848) [6]: 31 mm

CCSSc1ccccc1[N+](=O)[O-] [Compound 44b]
Minimum inhibitory concentration (MIC) against B. anthracis (USF 848) [7]: 0.63 µg/mL (≈ 2.93 µM)
Zones of growth inhibition of S. aureus (ATCC 25923) [3]: 29(40) mm
Zones of growth inhibition of S. aureus (ATCC 25923), areas of partial inhibition [3]: 29(40) mm
Minimum inhibitory concentration (MIC) against S. aureus (ATCC 25923) [5]: 16 µg/mL (≈ 74.3 µM)
Zones of growth inhibition of B. anthracis (USF 848) [6]: 35 mm

CC(C)SSc1ccccc1[N+](=O)[O-] [Compound 44c, Isopropyl o-nitrophenyl Disulfide]
MIC [7]: 0.63 µg/mL (≈ 2.75 µM)
Zones of growth inhibition of S. aureus (ATCC 25923) [3]: 17 (31) mm
Zones of growth inhibition of S. aureus (ATCC 25923), areas of partial inhibition [3]: 17 (31) mm
zone of inhibition at 20 µg/disc [3, 10]: 17 mm
zone of inhibition at 20 µg/disc [3, 9]: 31 mm
zone of inhibition at 20 µg/disc [4]: 20 mm
MIC [5]: 6 µg/mL (≈ 26.2 µM)
zone of inhibition at 20 µg/disc [6, 12]: 16 mm
zone of inhibition at 20 µg/disc [6, 11]: 27 mm

CCC(C)SSc1ccccc1[N+](=O)[O-] (centres unmarked) [Compound 44d, s-Butyl o-nitrophenyl Disulfide]
MIC [7]: 0.75 µg/mL (≈ 3.08 µM)
Zones of growth inhibition of S. aureus (ATCC 25923) [3]: 15 (24) mm
Zones of growth inhibition of S. aureus (ATCC 25923), areas of partial inhibition [3]: 15 (24) mm
zone of inhibition at 20 µg/disc [3, 10]: 15 mm
zone of inhibition at 20 µg/disc [3, 9]: 24 mm
MIC [5]: 16 µg/mL (≈ 65.7 µM)
zone of inhibition at 20 µg/disc [6, 12]: 23 mm

CSSc1ccc(NC(C)=O)cc1 [Compound 46a, p-Acetamidophenyl Methyl Disulfide]
MIC [7]: 8 µg/mL (≈ 37.5 µM)
zone of inhibition at 20 µg/disc [3, 9]: 20 mm
zone of inhibition at 20 µg/disc [6, 11]: 23 mm
